Results published in PubChem BioAssay (NCI).
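Step 1: Grow cells in 96-well plates. Step 2: Expose to compound for 48 hours at 5 concentrations. Step 3: Interpolate endpoints linearly; if unreached, use highest concentration. GI50 = concentration required for 50% inhibition of growth. TGI: concentration producing complete growth inhibition.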

Experiments:
Assay in all cases: NCI-60 cell line screen, 48 h
HCT-15 colon = test system: HCT-15 colon
MOLT-4 leukemia = test system: MOLT-4 leukemia
CCRF-CEM leukemia = test system: CCRF-CEM leukemia
HOP-92 NSCLC = test system: HOP-92 NSCLC
NCI-H522 lung = test system: NCI-H522 lung
HT29 colon = test system: HT29 colon
A549 NSCLC = test system: A549 NSCLC
SNB-75 CNS = test system: SNB-75 CNS
SNB-19 CNS = test system: SNB-19 CNS
HCC-2998 colon = test system: HCC-2998 colon
HS 578T breast = test system: HS 578T breast
PC-3 prostate = test system: PC-3 prostate
NCI-H23 lung = test system: NCI-H23 lung
TK-10 renal = test system: TK-10 renal
SF-295 CNS = test system: SF-295 CNS
NCI-H226 lung = test system: NCI-H226 lung
MDA-MB-231 breast = test system: MDA-MB-231 breast
SK-MEL-28 melanoma = test system: SK-MEL-28 melanoma
CAKI-1 renal = test system: CAKI-1 renal
K-562 leukemia = test system: K-562 leukemia
COLO 205 colon = test system: COLO 205 colon
RXF 393 renal = test system: RXF 393 renal
DU-145 prostate = test system: DU-145 prostate
OVCAR-3 ovarian = test system: OVCAR-3 ovarian
SN12C renal = test system: SN12C renal
OVCAR-8 ovarian = test system: OVCAR-8 ovarian
SK-MEL-5 melanoma = test system: SK-MEL-5 melanoma
SW-620 colon = test system: SW-620 colon
OVCAR-4 ovarian = test system: OVCAR-4 ovarian
MDA-MB-468 breast = test system: MDA-MB-468 breast
KM12 colon = test system: KM12 colon
MALME-3M melanoma = test system: MALME-3M melanoma
HCT-116 colon = test system: HCT-116 colon
786-0 renal = test system: 786-0 renal
MDA-MB-435 = test system: MDA-MB-435
ACHN renal = test system: ACHN renal
U251 CNS = test system: U251 CNS
MCF7 breast = test system: MCF7 breast
M14 melanoma = test system: M14 melanoma
BT-549 breast = test system: BT-549 breast
RPMI-8226 leukemia = test system: RPMI-8226 leukemia
SK-OV-3 ovarian = test system: SK-OV-3 ovarian
A498 renal = test system: A498 renal
UACC-257 melanoma = test system: UACC-257 melanoma
SK-MEL-2 melanoma = test system: SK-MEL-2 melanoma
HOP-62 NSCLC = test system: HOP-62 NSCLC
OVCAR-5 ovarian = test system: OVCAR-5 ovarian
SR leukemia = test system: SR leukemia
LOX IMVI melanoma = test system: LOX IMVI melanoma
HL-60(TB) leukemia = test system: HL-60(TB) leukemia
UO-31 renal = test system: UO-31 renal
UACC-62 melanoma = test system: UACC-62 melanoma
EKVX NSCLC = test system: EKVX NSCLC
SF-268 CNS = test system: SF-268 CNS
T-47D breast = test system: T-47D breast
NCI-H460 lung = test system: NCI-H460 lung

Cc1ccc(C(=O)Nc2ccc(-n3ccnc3)c(C(F)(F)F)c2)cc1C#Cc1cnc2cccnn12
GI50 (HCT-15 colon): 1290 nM
TGI (HCT-15 colon): > 45800 nM
GI50 (MOLT-4 leukemia): 822 nM
TGI (MOLT-4 leukemia): 3510 nM
GI50 (CCRF-CEM leukemia): 1380 nM
TGI (CCRF-CEM leukemia): > 45800 nM
GI50 (HOP-92 NSCLC): 702 nM
TGI (HOP-92 NSCLC): 3100 nM
GI50 (NCI-H522 lung): 851 nM
TGI (NCI-H522 lung): 3360 nM
GI50 (HT29 colon): 915 nM
TGI (HT29 colon): > 45800 nM
GI50 (A549 NSCLC): 1820 nM
TGI (A549 NSCLC): > 45800 nM
GI50 (SNB-75 CNS): 690 nM
TGI (SNB-75 CNS): 5750 nM
GI50 (SNB-19 CNS): 6060 nM
TGI (SNB-19 CNS): > 45800 nM
GI50 (HCC-2998 colon): 1130 nM
TGI (HCC-2998 colon): > 45800 nM
GI50 (HS 578T breast): 713 nM
TGI (HS 578T breast): 2930 nM
GI50 (PC-3 prostate): 1550 nM
TGI (PC-3 prostate): 12100 nM
GI50 (NCI-H23 lung): 1020 nM
TGI (NCI-H23 lung): > 45800 nM
GI50 (TK-10 renal): 2910 nM
TGI (TK-10 renal): > 45800 nM
GI50 (SF-295 CNS): 1270 nM
TGI (SF-295 CNS): > 45800 nM
GI50 (NCI-H226 lung): 567 nM
TGI (NCI-H226 lung): 14400 nM
GI50 (MDA-MB-231 breast): 331 nM
TGI (MDA-MB-231 breast): 3210 nM
GI50 (SK-MEL-28 melanoma): 790 nM
TGI (SK-MEL-28 melanoma): 5780 nM
GI50 (CAKI-1 renal): 1420 nM
TGI (CAKI-1 renal): 16000 nM
GI50 (K-562 leukemia): 4.58 nM
TGI (K-562 leukemia): > 45800 nM
GI50 (COLO 205 colon): 1220 nM
TGI (COLO 205 colon): > 45800 nM
GI50 (RXF 393 renal): 1120 nM
TGI (RXF 393 renal): 3310 nM
GI50 (DU-145 prostate): 2530 nM
TGI (DU-145 prostate): > 45800 nM
GI50 (OVCAR-3 ovarian): 2380 nM
TGI (OVCAR-3 ovarian): > 45800 nM
GI50 (SN12C renal): 1060 nM
TGI (SN12C renal): > 45800 nM
GI50 (OVCAR-8 ovarian): 1320 nM
TGI (OVCAR-8 ovarian): > 45800 nM
GI50 (SK-MEL-5 melanoma): 1270 nM
TGI (SK-MEL-5 melanoma): 4920 nM
GI50 (SW-620 colon): 1190 nM
TGI (SW-620 colon): > 45800 nM
GI50 (OVCAR-4 ovarian): 1300 nM
TGI (OVCAR-4 ovarian): > 45800 nM
GI50 (MDA-MB-468 breast): 1570 nM
TGI (MDA-MB-468 breast): > 45800 nM
GI50 (KM12 colon): 203 nM
TGI (KM12 colon): > 45800 nM
GI50 (MALME-3M melanoma): 198 nM
TGI (MALME-3M melanoma): 1720 nM
GI50 (HCT-116 colon): 917 nM
TGI (HCT-116 colon): > 45800 nM
GI50 (786-0 renal): 2700 nM
TGI (786-0 renal): > 45800 nM
GI50 (MDA-MB-435): 1100 nM
TGI (MDA-MB-435): > 45800 nM
GI50 (ACHN renal): 1640 nM
TGI (ACHN renal): 20500 nM
GI50 (U251 CNS): 3660 nM
TGI (U251 CNS): > 45800 nM
GI50 (MCF7 breast): 2140 nM
TGI (MCF7 breast): > 45800 nM
GI50 (M14 melanoma): 567 nM
TGI (M14 melanoma): > 45800 nM
GI50 (BT-549 breast): 1420 nM
TGI (BT-549 breast): 4080 nM
GI50 (RPMI-8226 leukemia): 830 nM
TGI (RPMI-8226 leukemia): 3600 nM
GI50 (SK-OV-3 ovarian): 5180 nM
TGI (SK-OV-3 ovarian): > 45800 nM
GI50 (A498 renal): 2690 nM
TGI (A498 renal): > 45800 nM
GI50 (UACC-257 melanoma): 1190 nM
TGI (UACC-257 melanoma): > 45800 nM
GI50 (SK-MEL-2 melanoma): 458 nM
TGI (SK-MEL-2 melanoma): 2510 nM
GI50 (HOP-62 NSCLC): 1360 nM
TGI (HOP-62 NSCLC): > 45800 nM
GI50 (OVCAR-5 ovarian): 1020 nM
TGI (OVCAR-5 ovarian): > 45800 nM
GI50 (SR leukemia): 1330 nM
TGI (SR leukemia): > 45800 nM
GI50 (LOX IMVI melanoma): 637 nM
TGI (LOX IMVI melanoma): > 45800 nM
GI50 (HL-60(TB) leukemia): 215 nM
TGI (HL-60(TB) leukemia): 1540 nM
GI50 (UO-31 renal): 702 nM
TGI (UO-31 renal): > 45800 nM
GI50 (UACC-62 melanoma): 495 nM
TGI (UACC-62 melanoma): 1620 nM
GI50 (EKVX NSCLC): 3110 nM
TGI (EKVX NSCLC): > 45800 nM
GI50 (SF-268 CNS): 1980 nM
TGI (SF-268 CNS): > 45800 nM
GI50 (T-47D breast): 943 nM
TGI (T-47D breast): 4110 nM
GI50 (NCI-H460 lung): 1730 nM
TGI (NCI-H460 lung): > 45800 nM
